Assay [1] concerns root-knot nematode (Meloidogyne incognita). Kind of assay: Initial Root-Knot Nematicidal Activity. In kind it is in vivo. As to conditions: 336 h, read-out: Percent Control; for pest or weed control at 0.313 ppm: Table 2, Application Rate 0.313 ppm; for pest or weed control at 1.25 ppm: Table 2, Application Rate 1.25 ppm; for pest or weed control at 0.078 ppm: Table 2, Application Rate 0.078 ppm; for pest or weed control at 0.156 ppm: Table 2, Application Rate 0.156 ppm. The protocol:
(§1) Compounds of this invention were tested as follows for nematicidal and anthelmintic activity as dust formulations (initial and residual activity) and as acetone/water formulations (systemic activity). The formulations are described above.
The activity against root-knot nematode (Meloidogyne incognita) was determined by incorporating the compound of the invention in nematode infested soil at rates in the range of 10 ppm to 0.078 ppm of compound. Several tomato or cucumber seedlings were planted in the nematode infested soil. Two weeks after planting the test pots were evaluated to ascertain the degree of galling (swelling) on the roots of the plants, indicating the control provided by the test chemical.
The results expressed as precent control (determined by knot index) are set forth as averages in Table 2 (appended). Knot index is a numerical designation assigned at evaluation, having the following meanings:
Percent control is related to knot index as follows:
When the Knot Index is between 0 and 1 it is further subdivided as follows to indicate how close the percent control is to 75% or 100%: […]

For assay [2], the system named is root-knot nematode. Kind of assay: Systemic Activity (basipetal, foliar spray) against root-knot nematode. The conditions noted are these: 336 h, Table 8, rate 2000 ppm, read-out: Percent Control. In kind it is in vivo, Meloidogyne incognita. The protocol: as §1
Compounds of the invention were tested for basipetal systemic activity against the root-knot nematode. In this test, tomato plants are grown in 10.2 cm diameter fiber pots containing steam-pasteurized soil mix (50%, soil, 50% sand) until 4-6 true leaves appear. Three of the pots are then placed on a turntable in a spray hood and the plants sprayed with 50 ml of water/acetone solution containing the test compound. The soil surface is covered during the spraying to prevent spraying of the soil. After treatment, the potted plants are placed in a lighted drying chamber. The plants are then grown in a growth chamber at 25° C. for three days and inoculated with a standard nematode culture by incorporating the inoculum into the top cm of soil in the pots. The plants are returned to the growth chamber for about two weeks at which time the pots are allowed to dry until the plants begin to wilt. The roots are shaken free of soil and the degree of galling (swelling) noted as compared to galling of untreated control plants. The results are expressed as Knot Index and Percent Control as defined in the initial root-knot nematode activity tests reported above in Table 2.

For assay [3], the system named is root-knot nematode. The assay can be described thus: Residual Root-Knot Nematicidal Activity. Type of assay: in vivo, Meloidogyne incognita. As to conditions: read-out: Percent Control. The procedure: as §1
The ability of nematicidal compounds of the invention to control root-knot nematode infestations in soil over a period of time after treatment was evaluated. Dust formulations of test compound (5%) were incorporated into soil samples at test compound rates of 5 and 10 ppm. Subsequently, the treated soil samples were inoculated with nematode inoculum at weekly intervals, and Knot Index and Percent Control determined on seedlings planted in the soil samples. Specifically, soil treated with test compound was placed in 7.6 cm diameter fiber pots and stored in a greenhouse. At one, two and four weeks post-treatment, the appropriate number of pots was infested with root-knot nematode eggs and larvae. A cucumber or tomato seedling was planted in each pot and evaluated approximately two weeks after the soil infestation to obtain the test results reported in Tables 3 and 3a appended.

The next assay relates to stunt nematode. The assay can be described thus: Stunt Nematode Test. In kind it is in vivo. The procedure: as §1
The procedure was substantially the same as in the […] seedling, with subsequent inoculation of the soil with combined larvae and adult stunt nematodes. The samples were evaulated approximately four weeks after infestation. […] "Percent control" means the difference between average population counts between untreated and treated samples, divided by average population count of untreated sample, multiplied by 100.

The test system of the next assay is Caenorhabditis elegans. The assay can be described thus: C. Elegans Nematode Screening Test and Evaluation (in-vitro). The conditions noted are these: Caenorhabditis elegans. The protocol:
This in-vitro test using the free-living nematode Caenorhabditis elegans, is a modification of the assay developed by Simpkin and Coles, J. Chem. Tech. […] One milliliter of a test medium consisting of 5 mg ampicillin, 10,000 units of mycostatin and 10 ml of a dense suspension of Escherichia coli per 100 ml of a buffer solution, was pipetted into each well of a 24-well microtiter plate. The candidate nematicide, suspended at the appropriate concentration in dimethylsulfoxide, was added to the wells in […] volumes. Each rate of application was replicated two to three times. After thorough mixing of the contents of each well, 50 to 100 μl of a nematode suspension in a buffer was added so that each well received 10-15 nematodes. After the nematodes were added, the microtiter plates were incubated at 20° C. for 5-6 days.
The effect of the candidate nematicide on the survival and the reproduction of C. elegans was then evaluated by comparison of the level of population developed in the treated wells with that in untreated wells. Specific effects on population development, such as reduced egg hatch or molting disruption, were noted if they were evident.

Assay [4] has as its system root-knot nematode. The assay can be described thus: Soil Mobility against root-knot nematode. As to conditions: 336 h, Table 7a, 5% dust, 5 ppm, read-out: Percent Control. In kind it is in vivo, Meloidogyne incognita. The procedure: as §1
The ability of nematicidal compounds of the invention to move through nematode-infested soil […] infested soil, and subsequently eluting the soil with 15 cm of water (equivalent to 15 cm of rainfall) into a series of two or more pots of untreated, but nematode-infested, soil. Specifically, the pots were 8 cm diameter plastic pots containing a 10 cm^3 layer of sand over a coarse grade filter paper disc. Sufficient soil was placed over the sand to fill the pots, and a second filter paper disc was placed over the soil. Each test compound-treated pot was nested over a series of two or more pots containing untreated, but nematode-infested soil, also containing sand filter paper discs as described for the treated soil pots. Fifteen cm of water was slowly dripped into the top pots and the pots were allowed to drain for 16-18 hours to remove excess water. The top filter of each pot was then removed and the pots were planted with a cucumber or tomato seedling. […] "Knot Index" and "Percent Control" are as defined in the initial root-knot nematode tests above.

In a further assay the test system is lesion nematode. The assay can be described thus: Lesion Nematode Test. The conditions noted are these: Table 5; rate 2.5 ppm; read-out: Percent Control. Type of assay: in vivo. The protocol: as §1
The procedure was substantially the same as in the stunt nematode test described above except that pea seedlings were used. The results (Table 5 appended) show good control with many of the compounds at the application rates tested as compared with untreated samples (no control). "Percent Control" is defined as follows: [formula]

The mark [5] stands for this setting: Table 2, Application Rate 0.625 ppm.
Where [6] appears, read: Table 2, Application Rate 2.5 ppm.

Molecules are shown by their SMILES. Like-named read-outs stand apart in the source and are kept apart here.

For `CC(C)(C)CC(C)(C)Sc1nnc(SCCC(F)=C(F)F)s1` [Compound 12, 2-(1,1,3,3-tetramethylbutylthio)-5-(3,4,4-trifluoro-3-butenylthio)-1,3,4-thiadiazole], the pest or weed control at 0.313 ppm in assay [1] amounted to 8%. Besides, the pest or weed control at 0.625 ppm in assay [1] (setting [5]) was 69%. Moreover, the pest or weed control at 1.25 ppm in assay [1] is 79%. In assay [1] (setting [6]), the pest or weed control at 2.5 ppm was determined as 100%. Further, the pest or weed control at 2000 ppm with root-knot nematode [2] was determined as 73%; with root-knot nematode [2] (foliar) it was 99%.
As to `FC(F)=C(F)CCSc1nnc(SCCC(F)=C(F)F)s1` [Compound 13, 2,5-di(3,4,4-trifluoro-3-butenylthio)-1,3,4-thiadiazole], the pest or weed control at 0.078 ppm in assay [1] amounted to 0%. Also, the pest or weed control at 0.156 ppm in assay [1] came out at 13%. Moreover, the pest or weed control at 0.313 ppm in assay [1] is 71%. Further, the pest or weed control at 0.625 ppm in assay [1] (setting [5]) turned out to be 96%; in assay [1], 95%. In addition, the pest or weed control at 1.25 ppm in assay [1] stood at 99%. In assay [1] (setting [6]), the pest or weed control at 2.5 ppm came out at 99%. Besides, the pest or weed control at 5 ppm with root-knot nematode [3] (168 h, Table 3, inoculation 1 week after treatment) amounted to 98%; in the assay on root-knot nematode [3] (336 h, Table 3, inoculation 2 weeks after treatment) it was 98%; with root-knot nematode [3] (672 h, Table 3, inoculation 4 weeks after treatment), 75%. Moreover, the pest or weed control at 10 ppm in the assay on root-knot nematode [3] (168 h, Table 3, 10 ppm, inoculation 1 week after treatment) is 99%; in the assay with root-knot nematode [3] (336 h, Table 3, 10 ppm, inoculation 2 weeks after treatment) it was 99%; in the assay on root-knot nematode [3] (672 h) it was 95%. The pest or weed control at 2000 ppm in the assay on root-knot nematode [2] (foliar) is 79%.
For `FC(F)=C(F)CCSc1nnc(SCC2CC2)s1` [Compound 15, 2-cyclopropylmethylthio-5-(3,4,4-trifluoro-3-butenylthio)-1,3,4-thiadiazole], in assay [1], the pest or weed control at 0.313 ppm was determined as 6% and the pest or weed control at 1.25 ppm came to 97%. In addition, in assay [1] (setting [5]), the pest or weed control at 0.625 ppm was found to be 31%. In assay [1] (setting [6]), the pest or weed control at 2.5 ppm was 100%. In addition, the pest or weed control at 2000 ppm in the assay on root-knot nematode [2] (foliar) was 83%.
As to `FC(F)=C(F)CCSc1nnc(-c2ccccc2)o1` [Compound 16, 2-phenyl-5-(3,4,4-trifluoro-3-butenylthio)-1,3,4-oxadiazole], in assay [1], the pest or weed control at 0.313 ppm was determined as 0%, the pest or weed control at 1.25 ppm was determined as 44% and the pest or weed control at 2.5 ppm stood at 95%. Also, the pest or weed control at 0.625 ppm in assay [1] (setting [5]) stood at 25%. Moreover, the pest or weed control at 2000 ppm with root-knot nematode [2] (foliar) amounted to 67%.
As for `FC(F)=C(F)CCSc1nnc(-c2ccc(Cl)cc2)o1` [Compound 17, 2-(4-chlorophenyl)-5-(3,4,4-trifluoro-3-butenylthio)-1,3,4-oxadiazole], the pest or weed control at 2.5 ppm in assay [1] (setting [6]) was 100%. Besides, the pest or weed control at 5 ppm in assay [1] (Table 2, Application Rate 5.0 ppm) was found to be 100%. For the same molecule, the pest or weed control at 10 ppm in assay [1] (Table 2, Application Rate 10.0 ppm) turned out to be 100%. Also, in the assay with root-knot nematode [2] (foliar), the pest or weed control at 2000 ppm is 42%.
One may read the inhibition as the relative decrease from the control value, in per cent. The mortality is the share of the test organisms that died. Consider `FC(F)=C(F)CCSc1nnc(Cc2ccc(Cl)cc2)o1` [Compound 43, 2-(4-chlorophenylmethyl)-5-(3,4,4-trifluoro-3-butenylthio)-1,3,4-oxadiazole], for which the pest or weed control at 5 ppm amounted to 81% in the assay with stunt nematode (672 h, Table 4a; rate 5 ppm; read-out: Percent Control); 62% with stunt nematode (672 h; Table 4a; rate 5 ppm; read-out: Percent Control); 100% with root-knot nematode [3] (168 h, Table 3a, 5% dust, inoculation 1 week post-treatment); 100% in the assay on root-knot nematode [3] (336 h, Table 3a, 5% dust, inoculation 2 weeks post-treatment); 100% in the assay on root-knot nematode [3] (672 h, Table 3a, 5% dust, inoculation 4 weeks post-treatment); 81% with root-knot nematode [4] (BOTTOM container). Further, the pest or weed control at 5 ppm in the assay with root-knot nematode [4] (MIDDLE container) was 97%; in the assay with root-knot nematode [4] (TOP container) it was 99%. For the same molecule, the inhibition at 5 ppm with Caenorhabditis elegans (Table 9 screen, 5 ppm, read-out: Percent Inhibition of Reproduction) is 100%. In addition, the mortality at 5 ppm with Caenorhabditis elegans (Table 9 screen, 5 ppm, read-out: Percent Mortality) was 25%; in the assay with Caenorhabditis elegans (Table 10 evaluation, 5 ppm, read-out: Percent Mortality) it was 83%. Also, the inhibition at 1.25 ppm in the assay on Caenorhabditis elegans (Table 10 evaluation, 1.25 ppm, read-out: Percent Inhibition of Reproduction) was determined as 42%. In the assay on Caenorhabditis elegans (Table 10 evaluation, 1.25 ppm, read-out: Percent Mortality), the mortality at 1.25 ppm stood at 0%. For the same molecule, the inhibition at 2.5 ppm with Caenorhabditis elegans (Table 10 evaluation, 2.5 ppm, read-out: Percent Inhibition of Reproduction) was determined as 100%. In addition, the mortality at 2.5 ppm in the assay with Caenorhabditis elegans (Table 10 evaluation, 2.5 ppm, read-out: Percent Mortality) was determined as 67%. For the same molecule, the pest or weed control at 0.078 ppm in assay [1] is 13%. For the same molecule, in assay [1], the pest or weed control at 0.156 ppm worked out at 38%. Moreover, the pest or weed control at 0.312 ppm in assay [1] (Table 2, Application Rate 0.312 ppm) came out at 78%. Further, in assay [1], the pest or weed control at 1.25 ppm came out at 56%. The pest or weed control at 2.5 ppm came to 97% in assay [1] (setting [6]) and 93% with lesion nematode. The pest or weed control at 0.5 ppm in assay [1] (Table 2, Application Rate .5 ppm) came out at 99%.

These data come from US4952580A, “Pesticidal polyhaloalkene derivatives” (priority 1988, dated 1990).
